Drawing on US12371454B2, “Cyclic peptide compound having Kras inhibitory action” (priority 2019, dated 2025), this text covers IC50 for 16 compounds.

Usually pIC50 stands for −log10 of the IC50, conventionally taken in molar units.

pIC50: −log10 of the molar value. Starred links: 1 amine or outer side, 2 acyl side, 3 side chain; linkers in the order of their positions; H or OH if unused. Positions of bridges follow the written chain, without caps; N, C: chain ends. Non-standard residues stand in square brackets, D forms with d. Residues, ends and D or L forms follow the SMILES beside them. *: point of attachment. hPhe(3-Cl-4-CF3) = N[C@@H](CCc1ccc(C(F)(F)F)c(Cl)c1)C(=O)O; hPhe(3-F,4-CF3) = N[C@@H](CCc1ccc(C(F)(F)F)c(F)c1)C(=O)O; X37 = O=C([C@H](CCc1ccc(C(F)F)c(F)c1)N[*:1])[*:2]; 3Oxa8azabicyclo(3.2.1)octane = C1CC2COCC1N2*; NMePhe(4-Cl) = CN[C@@H](Cc1ccc(Cl)cc1)C(=O)O; NMePhe(4-Me) = CN[C@@H](Cc1ccc(C)cc1)C(=O)O; NMePhe(4-F) = CN[C@@H](Cc1ccc(F)cc1)C(=O)O; NMePhe(4-I) = CN[C@@H](Cc1ccc(I)cc1)C(=O)O; NMedβ3hAla = C[C@H](CC(=O)[*:2])N(C)[*:1]; NMeAla(cPent) = CN[C@@H](CC1CCCC1)C(=O)O; NMeGly(cPent) = CN[C@H](C(=O)O)C1CCCC1; NMeCha = CN[C@@H](CC1CCCCC1)C(=O)O; NMeGly(cPr) = CN[C@H](C(=O)O)C1CC1; Hyp = O=C(O)[C@@H]1C[C@@H](O)CN1; NEtLeu = CCN[C@@H](CC(C)C)C(=O)O; NMeChg = CN[C@H](C(=O)O)C1CCCCC1; NMeI = CC[C@H](C)[C@H](NC)C(=O)O; NMeT = CN[C@H](C(=O)O)[C@@H](C)O; Gly(cBu) = N[C@H](C(=O)O)C1CCC1; NMeD = CN[C@@H](CC(=O)O)C(=O)O; NMeHpra = C#CCC[C@H](NC)C(=O)O; NMeL = CN[C@@H](CC(C)C)C(=O)O; NMehSer = CN[C@@H](CCO)C(=O)O; NMeV = CN[C@H](C(=O)O)C(C)C; d(β3hA) = C[C@@H](N)CC(=O)O; Azetidin(1-yl) = C1CN(*)C1; NMeS = CN[C@@H](CO)C(=O)O; NMeA = CN[C@@H](C)C(=O)O; Piperidide = C1CCN(*)CC1; Ac5c = NC1(C(=O)O)CCCC1; Aze = O=C(O)[C@@H]1CCN1; Meb = Cc1ccc(C*)cc1; Sar = CNCC(=O)O; Propyl = CCC*

For the assay, the system named is Human pancreatic cancer cell line AsPC-1. Nature of the assay: Measurement of AsPC-1 cell growth inhibition (AsPC-1 CGI). It counts as cell-based. As to conditions: 96 h. In a few lines:
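AsPC-1 cells in 15% FBS RPMI-1640 were exposed to test compound for 96 hours at 37° C, with CellTiter-Glo as endpoint.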
`CC[C@H](C)[C@@H]1NC(=O)[C@H](CC(C)C)N(C)C(=O)C[C@@H](C(=O)N2CCCCC2)N(C)C(=O)[C@H](C2CCCC2)N(C)C(=O)C2(CCCC2)NC(=O)[C@@H]2CCCN2C(=O)[C@H](CCc2ccc(C(F)F)c(F)c2)NC(=O)CN(C)C(=O)[C@H](CC2CCCCC2)N(C)C(=O)[C@@H]2CCN2C(=O)[C@H](C)N(C)C1=O` [Compound 2085, (5S,8S,11S,15S,18S,23aS,29S,35S,37aS)-8-((S)-sec-butyl)-35-(cyclohexylmethyl)-18-cyclopentyl-29-(4-(difluoromethyl)-3-fluorophenethyl)-11-isobutyl-5,6,12,16,19,33,36-heptamethyl-15-(piperidin-1-carbonyl)docosahydro-2H,4H-spiro[azeto[2,1-u]pyrrolo[2,1-i][1,4,7,10,13,16,19,22,25,28,31]undecazacyclotetratriacontyne-21,1′-cyclopentane]-4,7,10,13,17,20,23,28,31,34,37(14H,22H)-undecone] ([NMeL]I[NMeA][Aze][NMeCha][Sar][X37]P[Ac5c][NMeGly(cPent)][NMeD]-Piperidide; lactam N-11) gave a pIC50 of 6.30 to 7.00.

For `CC[C@H](C)[C@@H]1NC(=O)[C@H](CC(C)C)N(C)C(=O)C[C@@H](C(=O)N2CCCCC2)N(C)C(=O)[C@H](CC(C)C)N(C)C(=O)C2(CCCC2)NC(=O)[C@@H]2C[C@@H](OCc3ccc(C)cc3)CN2C(=O)[C@H](CCc2ccc(C(F)(F)F)c(F)c2)NC(=O)CN(C)C(=O)[C@H](CC2CCCCC2)N(C)C(=O)CN(C)C(=O)CN(C)C1=O` [Compound 2130] ([NMeL]I[Sar][Sar][NMeCha][Sar][hPhe(3-F,4-CF3)][Hyp](Meb)[Ac5c][NMeL][NMeD]-Piperidide; lactam N-11), the pIC50 is < 6.30.

For `CC[C@H](C)[C@@H]1NC(=O)[C@H](CC(C)C)N(C)C(=O)C[C@@H](C)NC(=O)[C@H](C2CCCC2)N(C)C(=O)C2(CCCC2)NC(=O)[C@@H]2CCCN2C(=O)[C@H](CCc2ccc(C(F)(F)F)c(Cl)c2)NC(=O)CN(C)C(=O)[C@H](CC2CCCCC2)N(C)C(=O)[C@@H]2CCN2C(=O)[C@H](C)N(C)C1=O` [Compound 1477] (cyclo([Ac5c][NMeGly(cPent)][d(β3hA)][NMeL]I[NMeA][Aze][NMeCha][Sar][hPhe(3-Cl-4-CF3)]P)), the pIC50 was 6.30 to 7.00.

Turning to `CC[C@H](C)[C@@H]1NC(=O)[C@H](CC(C)C)N(C)C(=O)C[C@@H](C)N(C)C(=O)[C@H](C(C)C)N(C)C(=O)C2(CCCC2)NC(=O)[C@@H]2CCCN2C(=O)[C@H](CCc2ccc(C(F)(F)F)c(Cl)c2)NC(=O)CN(C)C(=O)[C@H](CC2CCCC2)N(C)C(=O)CN(C)C(=O)CN(C)C1=O` [Compound 88] (cyclo([Ac5c][NMeV][NMedβ3hAla][NMeL]I[Sar][Sar][NMeAla(cPent)][Sar][hPhe(3-Cl-4-CF3)]P)), the negative logarithm of the IC50 (pIC50) was 7.00 to 7.30.

With `CC[C@H](C)[C@@H]1NC(=O)[C@H](CC(C)C)N(C)C(=O)C[C@@H](C(=O)N2C3CCC2COC3)N(C)C(=O)[C@H]([C@@H](C)CC)N(C)C(=O)C2(CCCC2)NC(=O)[C@@H]2CCCN2C(=O)[C@H](CCc2ccc(C(F)(F)F)c(Cl)c2)NC(=O)CN(C)C(=O)[C@H](CC2CCCCC2)N(C)C(=O)[C@@H]2CCN2C(=O)[C@H](C)N(C)C1=O` [Compound 469] ([NMeL]I[NMeA][Aze][NMeCha][Sar][hPhe(3-Cl-4-CF3)]P[Ac5c][NMeI][NMeD]-{3Oxa8azabicyclo(3.2.1)octane}; lactam N-11), the pIC50 is 7.30 to 7.70.

On to `CCCOC[C@H]1C(=O)N(C)CC(=O)N[C@@H](CCc2ccc(C(F)(F)F)c(Cl)c2)C(=O)N2CCC[C@H]2C(=O)NC2(CCCC2)C(=O)N(C)[C@@H](C2CCCC2)C(=O)N(C)[C@H](C(=O)N2C3CCC2COC3)CC(=O)N(C)[C@@H](CC(C)C)C(=O)N[C@@H]([C@@H](C)CC)C(=O)N[C@@H](C)C(=O)N2CC[C@H]2C(=O)N1C` [Compound 1299] ([NMeL]IA[Aze][NMeS](Propyl)[Sar][hPhe(3-Cl-4-CF3)]P[Ac5c][NMeGly(cPent)][NMeD]-{3Oxa8azabicyclo(3.2.1)octane}; lactam N-11), for which the negative logarithm of the IC50 (pIC50) is 7.30 to 7.70.

The compound `CC[C@H](C)[C@@H]1NC(=O)[C@H](CC(C)C)N(CC)C(=O)C[C@@H](C(=O)N2CCC2)N(C)C(=O)[C@H](C2CCCC2)N(C)C(=O)C2(CCCC2)NC(=O)[C@@H]2CCCN2C(=O)[C@H](CCc2ccc(C(F)(F)F)c(Cl)c2)NC(=O)CN(C)C(=O)[C@H](CC2CCCCC2)N(C)C(=O)[C@@H]2CCN2C(=O)[C@H](C)N(C)C1=O` [Compound 1198] ([NEtLeu]I[NMeA][Aze][NMeCha][Sar][hPhe(3-Cl-4-CF3)]P[Ac5c][NMeGly(cPent)][NMeD]-{Azetidin(1-yl)}; lactam N-11) had a pIC50 of 7.30 to 7.70.

For `CC[C@H](C)[C@@H]1NC(=O)[C@H](CC(C)C)N(CC)C(=O)C[C@@H](C)NC(=O)[C@H](C2CCCC2)N(C)C(=O)C2(CCCC2)NC(=O)[C@@H]2CCCN2C(=O)[C@H](CCc2ccc(C(F)(F)F)c(Cl)c2)NC(=O)CN(C)C(=O)[C@H](Cc2ccc(C)cc2)N(C)C(=O)[C@@H]2CCN2C(=O)[C@H](C)N(C)C1=O` [Compound 531] (cyclo([Ac5c][NMeGly(cPent)][d(β3hA)][NEtLeu]I[NMeA][Aze][NMePhe(4-Me)][Sar][hPhe(3-Cl-4-CF3)]P)), the pIC50 is 7.30 to 7.70.

Take `CC[C@H](C)[C@@H]1NC(=O)[C@H](CC(C)C)N(C)C(=O)C[C@@H](C(=O)N2CCCCC2)N(C)C(=O)[C@H]([C@@H](C)CC)N(C)C(=O)C2(CCCC2)NC(=O)[C@@H]2CCCN2C(=O)[C@H](CCc2ccc(C(F)(F)F)c(Cl)c2)NC(=O)CN(C)C(=O)[C@H](Cc2ccc(F)cc2)N(C)C(=O)[C@@H]2CCN2C(=O)[C@H](C)N(C)C1=O` [Compound 1060] ([NMeL]I[NMeA][Aze][NMePhe(4-F)][Sar][hPhe(3-Cl-4-CF3)]P[Ac5c][NMeI][NMeD]-Piperidide; lactam N-11): the negative logarithm of the IC50 (pIC50) was 7.30 to 7.70.

For `CC[C@H](C)[C@@H]1NC(=O)[C@H](CC(C)C)N(C)C(=O)C[C@@H](C(=O)N2CCCCC2)N(C)C(=O)[C@H](C2CCCCC2)N(C)C(=O)C2(CCCC2)NC(=O)[C@H](CCOC)N(C)C(=O)[C@H](CCc2ccc(C(F)(F)F)c(Cl)c2)NC(=O)CN(C)C(=O)[C@H](CC2CCCCC2)N(C)C(=O)CN(C)C(=O)CN(C)C1=O` [Compound 2168] ([NMeL]I[Sar][Sar][NMeCha][Sar][hPhe(3-Cl-4-CF3)][NMehSer](Me)[Ac5c][NMeChg][NMeD]-Piperidide; lactam N-11), the pIC50 was 6.30 to 7.00.

For `CC(C)C[C@H]1C(=O)N[C@@H](C2CCC2)C(=O)N(C)[C@@H](C)C(=O)N2CC[C@H]2C(=O)N(C)[C@@H](CC2CCCCC2)C(=O)N(C)CC(=O)N[C@@H](CCc2ccc(C(F)(F)F)c(Cl)c2)C(=O)N2CCC[C@H]2C(=O)NC2(CCCC2)C(=O)N(C)[C@@H](C(C)C)C(=O)N(C)[C@H](C(=O)N2CCCCC2)CC(=O)N1C` [Compound 157] ([NMeL][Gly(cBu)][NMeA][Aze][NMeCha][Sar][hPhe(3-Cl-4-CF3)]P[Ac5c][NMeV][NMeD]-Piperidide; lactam N-11), the pIC50 is 6.30 to 7.00.

Take `CC[C@H](C)[C@@H]1NC(=O)[C@H](CC(C)C)N(C)C(=O)C[C@@H](C(=O)N2CCCCC2)N(C)C(=O)[C@H](C(C)C)N(C)C(=O)C2(CCCC2)NC(=O)[C@@H]2CCCN2C(=O)[C@H](CCc2ccc(C(F)(F)F)c(Cl)c2)NC(=O)CN(C)C(=O)[C@H]([C@@H](C)OC)N(C)C(=O)[C@@H]2CCN2C(=O)[C@H](C)N(C)C1=O` [Compound 929] ([NMeL]I[NMeA][Aze][NMeT](Me)[Sar][hPhe(3-Cl-4-CF3)]P[Ac5c][NMeV][NMeD]-Piperidide; lactam N-11): the pIC50 was 6.30 to 7.00.

As for `CC[C@H](C)[C@@H]1NC(=O)[C@H](C2CC2)N(C)C(=O)C[C@@H](C(=O)N2CCCCC2)N(C)C(=O)[C@H](C(C)C)N(C)C(=O)C2(CCCC2)NC(=O)[C@@H]2CCCN2C(=O)[C@H](CCc2ccc(C(F)(F)F)c(Cl)c2)NC(=O)CN(C)C(=O)[C@H](CC2CCCCC2)N(C)C(=O)[C@@H]2CCN2C(=O)[C@H](C)N(C)C1=O` [Compound 100] ([NMeGly(cPr)]I[NMeA][Aze][NMeCha][Sar][hPhe(3-Cl-4-CF3)]P[Ac5c][NMeV][NMeD]-Piperidide; lactam N-11), the pIC50 was 6.30 to 7.00.

As for `CC[C@H](C)[C@@H]1NC(=O)[C@H](CC(C)C)N(C)C(=O)C[C@@H](C)NC(=O)[C@H](C(C)C)N(C)C(=O)C2(CCCC2)NC(=O)[C@@H]2CCCN2C(=O)[C@H](CCc2ccc(C(F)(F)F)c(Cl)c2)NC(=O)CN(C)C(=O)[C@H](Cc2ccc(Cl)cc2)N(C)C(=O)[C@@H]2CCN2C(=O)[C@H](C)N(C)C1=O` [Compound 1018] (cyclo([Ac5c][NMeV][d(β3hA)][NMeL]I[NMeA][Aze][NMePhe(4-Cl)][Sar][hPhe(3-Cl-4-CF3)]P)), the negative-log IC50 (pIC50) was 6.30 to 7.00.

`CC[C@H](C)[C@@H]1NC(=O)[C@H](CC(C)C)N(C)C(=O)C[C@@H](C(=O)N2CCCCC2)N(C)C(=O)[C@H](C(C)C)N(C)C(=O)C2(CCCC2)NC(=O)[C@@H]2CCCN2C(=O)[C@H](CCc2ccc(C(F)(F)F)c(Cl)c2)NC(=O)CN(C)C(=O)[C@H](CC2CCCCC2)N(C)C(=O)[C@@H]2CCN2C(=O)[C@H]([C@@H](C)O)N(C)C1=O` [Compound 496] ([NMeL]I[NMeT][Aze][NMeCha][Sar][hPhe(3-Cl-4-CF3)]P[Ac5c][NMeV][NMeD]-Piperidide; lactam N-11) had a pIC50 of 6.30 to 7.00.

`C#CCC[C@H]1C(=O)N[C@@H]([C@@H](C)CC)C(=O)N(C)[C@@H](C)C(=O)N2CC[C@H]2C(=O)N(C)[C@@H](Cc2ccc(I)cc2)C(=O)N(C)CC(=O)N[C@@H](CCc2ccc(C(F)(F)F)c(Cl)c2)C(=O)N2CCC[C@H]2C(=O)NC2(CCCC2)C(=O)N(C)[C@@H](C2CCCCC2)C(=O)N[C@H](C)CC(=O)N1C` [Compound 971] (cyclo([Ac5c][NMeChg][d(β3hA)][NMeHpra]I[NMeA][Aze][NMePhe(4-I)][Sar][hPhe(3-Cl-4-CF3)]P)): the pIC50 was 6.30 to 7.00.
